Test results published in patent US9144239B2, “Macrocyclic picolinamides as fungicides” (DOW AGROSCIENCES LLC, priority 2012, dated 2015).
Like-named read-outs stand apart in the source and are kept apart here.

Tests used:
[1] = system: Mycosphaerella graminicola; anamorph: Septoria tritici; test: Fungicidal activity: leaf blotch of wheat (SEPTTR), wheat seedlings; format: in vivo; conditions: Zymoseptoria tritici, 100 ppm, wheat
How it was run: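 Percent control derives from disease severity on treated versus untreated first leaves, rated 0–100% when symptoms were fully expressed on untreated plants. Yuma seedlings were inoculated with S. tritici spores either before or after spraying to run-off. The spray was acetone solution diluted 1:9 in water with 110 ppm Triton X-100. Infection took place in 100% RH dew chambers, then a 20 °C greenhouse.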

[2] = system: Puccinia triticina; synonym: Puccinia recondita f. sp. tritici; test: Fungicidal activity: wheat brown rust (PUCCRT), wheat seedlings; format: in vivo; conditions: 100 ppm, wheat
How it was run: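 Wheat (Yuma) seedlings at first-leaf stage, inoculated with Puccinia triticina spores before or after treatment, held overnight in dark dew room at 22° C, 100% RH, then greenhouse at 24° C. Acetone solutions diluted with nine volumes water containing 110 ppm Triton X-100, sprayed to run-off. Percent disease control derived from severity (0–100%) relative to untreated plants.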

[3] = system: Puccinia triticina; synonym: Puccinia recondita f. sp. tritici; test: Fungicide mobility (dropline mobility test): wheat brown rust (PUCCRT); format: in vivo; conditions: 1 ug/leaf
How it was run: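 A 2 μl drop of formulated compound (EC blank, 110 ppm Triton X-100 water) was applied to a line 5 cm from the tip of primary leaves of "Yuma" wheat seedlings, 6 replicates. Inoculation with PUCCRT was done 1 day after or 3 days before application. Once disease was fully expressed on controls, the acropetal disease-free zone was measured as percent of line-to-tip distance.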

[4] = system: Venturia inaequalis; test: Fungicidal activity: apple scab (VENTIN); format: in vivo; conditions: 24 h, 1 Day Protectant, read-out: Disease Control VENTIN 1 DP
Description: Technical grades of materials were dissolved in acetone, which were then mixed with nine volumes of water containing 110 ppm Triton X-100. The fungicide solutions were applied onto wheat seedlings using an automated booth sprayer to run-off. All sprayed plants were allowed to air dry prior to further handling. Wheat plants (variety Yuma) were grown from seed in a greenhouse in 50% mineral soil/50% soil-less Metro mix until the first leaf was fully emerged, with 7-10 seedlings per pot. These plants were inoculated with an aqueous spore suspension of Septoria tritici either prior to or after fungicide treatments. After inoculation the plants were kept in 100% relative humidity (one day in a dark dew chamber followed by two to three days in a lighted dew chamber at 20° C.) to permit spores to germinate and infect the leaf. The plants were then transferred to a greenhouse set at 20° C. for disease to develop. When disease symptoms were fully expressed on the 1st leaves of untreated plants, infection levels were assessed on a scale of 0 to 100 percent disease severity. Percent disease control was calculated using the ratio of disease severity on treated plants relative to untreated plants. Evaluation of Fungicidal Activity: Apple Scab (Venturia inaequalis; Bayer Code […]) Apple seedlings (variety McIntosh) were grown in soil-less Metro mix, with one plant per pot. Seedlings with two expanding young leaves at the top (older leaves at bottom of the plants were trimmed) were used in the test. Plants were inoculated with a spore suspension of Venturia inaequalis 24 hr after fungicide treatment and kept in a 22° C. dew chamber with 100% RH for 48 hr, and then moved to a greenhouse set at 20° C. for disease to develop. Fungicide formulation, application and disease assessment on the sprayed leaves followed the procedures as described in the Example A.

[5] = system: Uncinula necator; test: Fungicidal activity: grape powdery mildew (UNCINE); format: in vivo; conditions: Erysiphe necator, 24 h, 1 Day Protectant, read-out: Disease Control UNCINE 1 DP
Description: Technical grades of materials were dissolved in acetone, which were then mixed with nine volumes of water containing 110 ppm Triton X-100. The fungicide solutions were applied onto wheat seedlings using an automated booth sprayer to run-off. All sprayed plants were allowed to air dry prior to further handling. Wheat plants (variety Yuma) were grown from seed in a greenhouse in 50% mineral soil/50% soil-less Metro mix until the first leaf was fully emerged, with 7-10 seedlings per pot. These plants were inoculated with an aqueous spore suspension of Septoria tritici either prior to or after fungicide treatments. After inoculation the plants were kept in 100% relative humidity (one day in a dark dew chamber followed by two to three days in a lighted dew chamber at 20° C.) to permit spores to germinate and infect the leaf. The plants were then transferred to a greenhouse set at 20° C. for disease to develop. When disease symptoms were fully expressed on the 1st leaves of untreated plants, infection levels were assessed on a scale of 0 to 100 percent disease severity. Percent disease control was calculated using the ratio of disease severity on treated plants relative to untreated plants. Evaluation of Fungicidal Activity: Grape Powdery Mildew (Uncinula necator; Bayer Code […]) Grape seedlings (variety Carignane) were grown in soil-less Metro mix, with one plant per pot, and used in the test when approximately one month old. Plants were inoculated 24 hr after fungicide treatment by shaking spores from infected leaves over test plants. Plants were maintained in a greenhouse set at 20° C. until disease was fully developed. Fungicide formulation, application and disease assessment on the sprayed leaves followed the procedures as described in the Example A.

[6] = system: Magnaporthe grisea; anamorph: Pyricularia oryzae; test: whole plant or invertebrate; format: in vivo; conditions: 24 h, read-out: Disease Control PYRIOR 1 DP
[7] = 24 h, 1 Day Protectant, read-out: Disease Control SEPTTR 1DP
[8] = 72 h, 3 Day Curative, read-out: Disease Control SEPTTR 3DC
[9] = 24 h, 1 Day Protectant, read-out: Disease Control PUCCRT 1DP
[10] = 72 h, 3 Day Curative, read-out: Disease Control PUCCRT 3DC
[11] = 24 h, 1 Day Protectant Mobility, read-out: Dropline Mobility Test PUCCRT 1DPM
[12] = 72 h, 3 Day Curative Mobility, read-out: Dropline Mobility Test PUCCRT 3DCM

| SMILES | pest or weed control at 100 ppm [1, 7] | pest or weed control at 100 ppm [1, 8] | pest or weed control at 100 ppm [2, 9] | pest or weed control at 100 ppm [2, 10] | pest or weed control at 1 µg/leaf [3, 11] | pest or weed control at 1 µg/leaf [3, 12] | melting point | pest or weed control at 100 ppm [4] | pest or weed control at 100 ppm [5] | pest or weed control at 100 ppm [6] |
| --- | --- | --- | --- | --- | --- | --- | --- | --- | --- | --- |
| COc1ccnc(C(=O)N[C@H]2COC[C@H](Oc3ccccc3)[C@@H](OCC(C)C)[C@H](C)OC2=O)c1O [Compound 83] | 80 to 100% | 80 to 100% | 80 to 100% | 80 to 100% | 80 to 100% | 0 to 80% | 112 to 113 °C |  |  |  |
| CCCCO[C@H]1[C@H](C)OC(=O)[C@@H](NC(=O)c2nccc(OC)c2OCOC(C)=O)COC[C@@H]1OCc1ccccc1 [Compound 34] | 80 to 100% | 80 to 100% | 80 to 100% | 80 to 100% | 0 to 80% | 80 to 100% |  | 80 to 100% | 80 to 100% |  |
| COc1ccnc(C(=O)N[C@H]2COC[C@H](O)[C@@H](OCC(C)C)[C@H](C)OC2=O)c1O [Compound 72, 3-hydroxy-N-((3S,7S,8R,9S)-7-hydroxy-8-isobutoxy-9-methyl-2-oxo-1,5-dioxonan-3-yl)-4-methoxypicolinamide] | 0 to 80% | 0 to 80% | 0 to 80% | 0 to 80% | 0 to 80% | 0 to 80% | 121 to 124 °C |  |  |  |
| CCCCO[C@H]1COC[C@H](NC(=O)c2nccc(OC)c2OCOC(C)=O)C(=O)O[C@@H](C)[C@@H]1OCc1ccccc1 [Compound 35] | 80 to 100% | 80 to 100% | 80 to 100% | 80 to 100% |  |  |  | 0 to 80% | 0 to 80% |  |
| CCCCO[C@H]1COC[C@H](NC(=O)c2nccc(OC)c2OCOC(C)=O)C(=O)O[C@@H](C)[C@@H]1OC(=O)C(C)C [Compound 47] | 80 to 100% | 80 to 100% | 80 to 100% | 80 to 100% |  |  |  | 80 to 100% | 0 to 80% | 80 to 100% |
| COc1ccnc(C(=O)N[C@H]2COC[C@H](OCc3ccccc3)[C@@H](OCc3ccccc3)[C@H](C)OC2=O)c1O [Compound 11, N-((3S,7S,8S,9S)-7,8-bis(benzyloxy)-9-methyl-2-oxo-1,5-dioxonan-3-yl)-3-hydroxy-4-methoxypicolinamide] | 80 to 100% | 0 to 80% | 80 to 100% | 80 to 100% | 0 to 80% | 0 to 80% | 144 to 146 °C |  |  |  |
| COc1ccnc(C(=O)N[C@H]2COC[C@H](OC3CCCCC3)[C@@H](OCC(C)C)[C@H](C)OC2=O)c1O [Compound 73] | 80 to 100% | 80 to 100% | 80 to 100% | 80 to 100% | 0 to 80% | 0 to 80% | 122 to 125 °C |  |  |  |
| COc1ccnc(C(=O)N[C@H]2COC[C@H](OCc3ccccc3)[C@@H](OCc3ccccc3)COC2=O)c1OCOC(=O)C(C)C [Compound 6] | 0 to 80% | 0 to 80% | 80 to 100% |  |  |  |  | 0 to 80% | 0 to 80% |  |
| CCCCO[C@H]1COC[C@H](NC(=O)c2nccc(OC)c2OCOC(C)=O)C(=O)O[C@@H](C)[C@@H]1OCCC [Compound 45] | 80 to 100% | 80 to 100% | 80 to 100% | 80 to 100% |  |  |  | 0 to 80% | 80 to 100% |  |
